Read-outs that look alike come from different tables or passages of the source.
Legend:
[1] = system: RCC4 and RCC4/VHL cells; type: cell-based
Experimental: Cell Viability Assays. For 2,3-bis[2-methoxy-4-nitro-5-sulfophenyl]-2H-tetrazolium-5-carboxanilide (XTT) assays, five thousand cells were plated in 96-well plates. The next day, vehicle (DMSO) or drug was added by serial dilution. Four days later, media were aspirated, XTT solution (0.3 mg/ml of XTT (Sigma), […] N-methyl dibenxopyrazine methyl sulfate (Sigma) in phenol red-free media) was added, and the plates were incubated at 37° C. for 1-2 hours. Metabolism of XTT was quantified by measuring the absorbance at 450 nm. IC50s were calculated using linear interpolation. For clonogenic survival assays, three hundred cells were plated per 60 mm tissue culture dish. The cells were allowed to attach overnight and then treated with vehicle or drug for 14 days. Colonies were fixed and stained with crystal violet (0.1% crystal violet in 95% ethanol). All conditions were measured in triplicate and each experiment was done in duplicate or triplicate. To determine necrosis, cells were treated with drug for a given time point. Media and cells were collected, centrifugated, and resuspended in 0.4% trypan blue (Invitrogen). Live and dead cells were counted on a hematocytometer.

[2] = system: 786-O xenograft tumors; assay: FDG-PET imaging of glucose uptake in renal carcinoma xenograft; type: in vivo, mice; details: three daily doses (STF-35 11.6 mg/kg i.p.)
Experimental: In Vivo Studies. All experiments were approved by Stanford's Administrative Panel on Laboratory Animal Care (APLAC) and in accordance with both institutional and national guidelines. Five million cells were implanted subcutaneously into the flanks of nude mice (4-6 weeks old)(Charles River Laboratories). Tumors were measured with calipers. Volume was calculated by the following formula: width^2×0.5 length. Once tumors reached an average size of >20 mm^3, mice were randomized into vehicle (DMSO diluted in 16% cremaphor EL/PBS) or treated groups. Mice were treated with STF-35 (11.6 mg/kg for the first 3 days, followed by 7.8 mg/kg for the 7-9 days). Five-micron sections were cut for immunohistochemistry. Sections were counterstained with hematoxylin and eosin. For 2-[^18F]-fluoro-2-deoxy-glucose-positron emission tomography imaging, mice bearing tumors were fasted overnight. The next day, the mice were anesthetized with 2% isoflurane and injected intraperitoneally with 250 μCi of FDG. Mice were imaged for 10 minutes at one hour post-injection, using a Rodent R4 microPET system (Concorde Microsystems). Data were reconstructed into three-dimensional volumes using an ordered subset expectation maximization algorithm and were calibrated into units of percent injected dose per gram.

[3] = system: LC3; details: leading to cell death; cited from earlier work
[4] = system: RCC4 cells; assay: Glucose uptake (2-deoxy-D-[3H]glucose), RCC4; type: cell-based
Experimental: Glucose Uptake. One hundred thousand cells were plated per well in a six-well plate. The next day, cells were treated with the indicated concentration of drug and incubated for the indicated time. Cells were then washed twice with phosphate-buffered saline, incubated in low-glucose medium for 30 minutes, and 3H-2-deoxyglucose (0.5 μCi) was added in 1 ml of glucose-free media for an additional hour. Cells were washed twice in PBS and lysed (0.2 N NaOH and 0.2% sodium dodecyl sulfate). Glucose uptake was quantified with a scintillation counter.

[5] = short-term (XTT) and/or long-term (clonogenic) survival assays

O=CC[C@@H](O)[C@H](O)[C@H](O)CO [2-DG, 2-deoxy-D-glucose]
cytotoxicity to RCC4 and RCC4/VHL cells [1]: not cytotoxic

Cc1cccc(Nc2nc(-c3ccncc3)cs2)c1 [STF-62247]
glucose (FDG) uptake within the tumors by FDG-PET [2]: did not have a decrease | autophagy in VHL-deficient RCCs [3]: induce autophagy | glucose uptake in VHL-defective cells, analogs and control cytotoxins [4]: did not decrease

O=C(O)C(=O)CBr [bromopyruvate]
cytotoxicity to RCC4 and RCC4/VHL cells [1, 5]: toxic to both

Clc1ccccc1C(c1ccccc1)(c1ccccc1)n1ccnc1 [clotrimazole]
cytotoxicity to RCC4 and RCC4/VHL cells [1]: toxic to both

CC(=O)CC(=O)Nc1ccc(Cl)c(C(F)(F)F)c1 [fasentin]
cytotoxicity to RCC4 and RCC4/VHL cells [1, 5]: relatively non-toxic

O=C(O)c1nn(Cc2ccc(Cl)cc2Cl)c2ccccc12 [lonidamine]
cytotoxicity to RCC4 and RCC4/VHL cells [1]: toxic to both

O=C(CCc1ccc(O)cc1)c1c(O)cc(O)cc1O [phloretin]
cytotoxicity to RCC4 and RCC4/VHL cells [1]: toxic to both
